# From patent publication US20100062067A1, “COMPOSITIONS COMPRISING MACROMOLECULAR ASSEMBLIES OF LIPID AND SURFACTANT” (MALVERN COSMECEUTICS LIMITED, priority 2006, published 2010)
# Starred links: 1 amine or outer side, 2 acyl side, 3 side chain; linkers in the order of their positions; H or OH if unused. Positions of bridges follow the written chain, without caps; N, C: chain ends. Non-standard residues stand in square brackets, D forms with d. Residues, ends and D or L forms follow the SMILES beside them. X1 = CC(C)CCCCCCCCC[C@H](CC(=O)[*:1])O[*:2]
# Assay: not given
# Details: Surf. Brij 35P 2.5%, lipid 90H 1.0%, co-surf. S LPC ca. 0.01% (as SL 80-3 0.05%), active agent 0.10%
row,Compound,Turbidity (FNU)
1,O=C(O)Cc1ccccc1Nc1c(Cl)cccc1Cl [Diclofenac],14.39 FNU
2,CCCC(=O)O[C@]1(C(=O)CO)CC[C@H]2[C@@H]3CCC4=CC(=O)CC[C@]4(C)[C@H]3[C@@H](O)C[C@@]21C [Hydrocortisone-17 butyrate],55.9 FNU
3,CCC(=O)O[C@]1(C(=O)CCl)[C@@H](C)C[C@H]2[C@@H]3CCC4=CC(=O)C=C[C@]4(C)[C@@]3(F)[C@@H](O)C[C@@]21C [Clobetasol Propionate],23.3 FNU
4,CC(C)CCC[C@@H](C)[C@H]1CC[C@H]2[C@@H]3CC=C4C[C@@H](OS(=O)(=O)O)CC[C@]4(C)[C@H]3CC[C@]12C [Cholesterol sulphate],9.48 FNU
5,O=C1OC2(c3cc(Br)c(O)c(Br)c3Oc3c2cc(Br)c(O)c3Br)c2c(Cl)c(Cl)c(Cl)c(Cl)c21 [D&C Red No. 27],16.44 FNU
6,C[C@@H]1[C@H](O)[C@@H](C)/C=C/C=C/CC/C=C/C=C/C=C/C=C/C(O[C@H]2O[C@H](C)[C@@H](O)[C@H](N)[C@@H]2O)CC2O[C@](O)(CC(O)C(O)CCC(O)CC(O)CC(O)CC(=O)O[C@H]1C)CC(O)C2C(=O)O (some centres unmarked) [Nystatin],21.3 FNU
7,CC(Cc1ccc(O)c(O)c1)C(C)Cc1ccc(O)c(O)c1 (centres unmarked) [NDGA],40.5 FNU
8,CCCCC(=O)O[C@]1(C(=O)CO)[C@@H](C)C[C@H]2[C@@H]3CCC4=CC(=O)C=C[C@]4(C)[C@@]3(F)[C@@H](O)C[C@@]21C [Betamethasone 17-valerate],19.24 FNU
9,COc1ccc(C(=O)c2ccccc2)c(O)c1 [Eusolex 4360],10.02 FNU
10,NC[C@@H]1O[C@H](O[C@H]2[C@@H](O)[C@H](O[C@@H]3[C@@H](O)[C@H](N)C[C@H](N)[C@H]3O[C@H]3O[C@H](CN)[C@@H](O)[C@H](O)[C@H]3N)O[C@@H]2CO)[C@H](N)[C@@H](O)[C@@H]1O.O=S(=O)(O)O [Neomycin sulphate],19.76 FNU
11,CC1=CCC(O)(C(C)C)CC1 (centres unmarked) [Melaleucol],19.4 FNU
12,O=C(CCCCc1ccc2c(c1)OCO2)N1CCCCC1 [Cosmoperine],6.38 FNU
13,Clc1ccccc1C(c1ccccc1)(c1ccccc1)n1ccnc1 [Clotrimazole],10.4 FNU
14,CCCCCCCCCCCCCCCC(=O)OC[C@H](O)[C@H]1OC(=O)C(O)=C1O [Ascorbyl palmitate],72.4 FNU
15,CC(C)CCC[C@@H](C)[C@H]1CC[C@H]2C3=CC=C4C[C@@H](O)CC[C@]4(C)[C@H]3CC[C@]12C [7-dehydrocholesterol],58.4 FNU
16,CC12CCC(CC1=O)C2(C)C (centres unmarked) [Camphor (S-Black)],29.70 FNU
17,COc1ccc2cc([C@H](C)C(=O)O)ccc2c1 [Naproxen],14.99 FNU
18,COc1ccc(C(=O)CC(=O)c2ccc(C(C)(C)C)cc2)cc1 [Avobenzene],52.9 FNU
19,Nc1ccc(C(=O)O)cc1 [PABA],8.81 FNU
20,CC(C)CCC[C@@H](C)[C@H]1CC[C@H]2[C@@H]3CC=C4C[C@@H](O)CC[C@]4(C)[C@H]3CC[C@]12C [Cholesterol],10.91 FNU
21,CCCCCCCCCCCCCCCCCCOC(=O)[C@@]1(C)CC[C@]2(C)CC[C@]3(C)C(=CC(=O)[C@@H]4[C@@]5(C)CC[C@H](O)C(C)(C)[C@@H]5CC[C@]43C)[C@@H]2C1 [Stearyl glycrrhetinate],88.9 FNU
22,O=C(/C=C/c1ccc(O)c(O)c1)O[C@H](Cc1ccc(O)c(O)c1)C(=O)O [Rosmarinic acid (90%)],31.5 FNU

# Same assay, conditions: Surf. Brij 35P 2.5%, lipid 90H 1.0%, co-surf. S LPC ca. 0.01% (as SL 80-3 0.05%), active agent 0.20%
row,Compound,Turbidity (FNU)
1,COC(=O)[C@@H]1[C@H]2C[C@H]3c4[nH]c5ccccc5c4CCN3C[C@@H]2CC[C@@H]1O.Cl [Yohimbine HCl USP HO],22.78 FNU

# Same assay, conditions: Surf. Brij 35P 2.5%, lipid 90H 1.0%, co-surf. S LPC ca. 0.01% (as SL 80-3 0.05%), active agent 0.25%
row,Compound,Turbidity (FNU)
1,O=C(OCc1ccccc1)c1cccnc1 [Benzyl nicotinate],18.84 FNU
2,COC(=O)[C@@H]1[C@H]2C[C@H]3c4[nH]c5ccccc5c4CCN3C[C@@H]2CC[C@@H]1O.Cl [Yohimbine HCl Crystalline],9.85 FNU
3,CC(C)c1c(O)ccc2c1CC[C@H]1C(C)(C)CCC[C@]21C [Totarol ®],12.89 FNU
4,CC12CCC(CC1=O)C2(C)C (centres unmarked) [Camphor],26.80 FNU
5,CC1CCC(C(C)C)C(OC(=O)[C@@H]2CCC(=O)N2)C1 (some centres unmarked) [Questice CQ U/A],46.81 FNU
6,COC(=O)[C@@H]1[C@H]2C[C@H]3c4[nH]c5ccccc5c4CCN3C[C@@H]2CC[C@@H]1O.Cl [Yohimbine HCl USP],13.42 FNU
7,C=CCCCCCCCCC(=O)N[C@@H](Cc1ccccc1)C(=O)O [SepiWhite MSH],10.43 FNU
8,OCc1cc(C(O)CNCCCCCCOCCCCc2ccccc2)ccc1O (centres unmarked) [Salmeterol xinafoate],5.49 FNU
9,Cc1cc(CC(C)CC(C)(C)C)n(O)c(=O)c1.NCCO (centres unmarked) [Octopirox ®],9.10 FNU
10,C[C@]12CCC(=O)C=C1CC[C@@H]1[C@@H]2[C@@H](O)C[C@@]2(C)[C@H]1CC[C@]2(O)C(=O)CO [Hydrocortisone],10.00 FNU

# Same assay, conditions: Surf. Brij 35P 2.5%, lipid 90H 1.0%, co-surf. S LPC ca. 0.01% (as SL 80-3 0.05%), active agent 0.80%
row,Compound,Turbidity (FNU)
1,Cc1cc(CC(C)CC(C)(C)C)n(O)c(=O)c1.NCCO (centres unmarked) [Octopirox ®],6.91 FNU

# Same assay, conditions: Surf. Brij 35P 2.5%, lipid 90H 1%, co-surf. S LPC ca. 0.01% (as SL 80-3 0.05%), active agent […]
row,Compound,Turbidity (FNU)
1,CC12CCC(/C(=C\c3ccccc3)C1=O)C2(C)C (centres unmarked) [Unisol S-22],14.59 FNU

# Same assay, conditions: Surf. Protasorb L-20 2.5%, lipid 90H 1.0%, co-surf. S LPC ca. 0.01% (as SL 80-3 0.05%), active agent 0.10%
row,Compound,Turbidity (FNU)
1,Vitamin E,29.60 FNU

# Same assay, conditions: Surf. Volpo L23 2.5%, lipid 90H 1.0%, co-surf. S LPC ca. 0.01% (as SL 80-3 0.05%), active agent 0.10%
row,Compound,Turbidity (FNU)
1,O=C1OC2(c3cc(Br)c(O)c(Br)c3Oc3c2cc(Br)c(O)c3Br)c2c(Cl)c(Cl)c(Cl)c(Cl)c21 [D&C Red No. 27],21.85 FNU

# Same assay, conditions: Surf. Volpo L23 2.5%, lipid 90H 1.0%, co-surf. S LPC ca. 0.01% (as SL 80-3 0.05%), active agent 0.25%
row,Compound,Turbidity (FNU)
1,"Cc1cc(C2CCCCC2)n(O)c(=O)c1 [Ciclopirox olamine, reference compound]",10.85 FNU
2,CCCCCCCCCCCCOC(=O)[C@@H]1CCC(=O)N1 [Laurydone ®],61.70 FNU
3,Clc1ccc(COC(Cn2ccnc2)c2ccc(Cl)cc2Cl)cc1 (centres unmarked) [Econazole nitrate],71.50 FNU
4,Cc1c(C2(c3cc(Br)c(O)c(Br)c3C)OS(=O)(=O)c3ccccc32)cc(Br)c(O)c1Br [Bromocresol Green],19.40 FNU
5,CCCCCCCCCCCCCCOC(=O)[C@@H]1CCC(=O)N1 [Myristidone ®],58.60 FNU

# Assay: Turbidity of surfactant/lipid compositions, formation of macromolecular complexes (Example 1)
# Assay type: physicochemical
# Details: 2.5% surfactant, 1% 90H lipid, ca. 0.01% S LPC co-surfactant (as 0.05% SL 80-3) in water, room temperature
# Method: Briefly, to the appropriate volume of warm water (ca. 60° C.), SL 80-3 was added. […] 90H was then added gradually, with heating and stirring maintained throughout and for a further 45 minutes after completion.
# After mixing the solution was stirred and heated to around 60-70° C.
# The required quantity of warm lipid emulsion was slowly added to the warm surfactant solution while stirring with the temperature maintained.
row,Compound,Average Turbidity
1,Laureth-10 [P9769],14.02 FNU
2,"CCCCCC(=O)O [Caproic Acid, Hexanoic acid]",>150 FNU
3,"CCCCCCCCCC(=O)O [Capric Acid, Decanoic acid]",>150 FNU
4,"CCCCCCCCCCCCCCCC(=O)O [Palmitic Acid, Hexadecanoic acid]",>150 FNU
5,"CCCCCCCCCCCC(=O)O [Lauric Acid, Dodecanoic acid]",>150 FNU
6,"O=C(O)c1ccccc1 [Benzoic Acid, Benzoic acid]",>150 FNU
7,"O=C(O)C(O)c1ccccc1 (racemic) [Mandelic Acid, DL-Mandelic acid]",>150 FNU
8,"CCCCCCCC/C=C\CCCCCCCC(=O)[O-].[K+] [Potassium Oleate, Potassium oleate]",>150 FNU
9,"CCCCCCCC(=O)O [Octanoic Acid, Octanoic acid]",>150 FNU
10,"CC(C)CCCCCCCCC[C@@H]1CC(=O)N[C@@H](CCC(=O)O)C(=O)N[C@@H](CC(C)C)C(=O)N[C@H](CC(C)C)C(=O)N[C@@H](C(C)C)C(=O)N[C@@H](CC(=O)O)C(=O)N[C@H](CC(C)C)C(=O)N[C@@H](CC(C)C)C(=O)O1 [Aminofect, Surfactin] (EL[dL]VD[dL]L; linker N-C via X1)",13.16 FNU
11,"CCCCCCCCCCCCOCCOCCOCCOCCOCCOCCOCCOCCO [compound 74680, Laureth-8]",131 FNU
12,"O=C(O)c1ccccc1O [Salicylic Acid, 2-Hydroxybenzoic acid]",>150 FNU
13,Laureth-9 [P9641],>150 FNU
14,Sodium deoxycholate [reference compound],32.6 FNU
15,C[C@H](CCC(=O)[O-])[C@H]1CC[C@H]2[C@@H]3[C@H](O)C[C@@H]4C[C@H](O)CC[C@]4(C)[C@H]3C[C@H](O)[C@]12C.[Na+] [Sodium cholate],23.3 FNU

# Assay: not given
# Details: literature or reported; cited from earlier work
row,Compound,HLB number
1,"CCCCCCCCCCCCOCCOCCOCCOCCOCCOCCOCCOCCO [compound 74680, Laureth-8]",13.1

# Same assay, conditions: rough average of manufacturer and literature values; cited from earlier work
row,Compound,Average HLB
1,Laureth-10 [P9769],13.5
2,"CCCCCCCCCCCCOCCOCCOCCOCCOCCOCCOCCOCCO [compound 74680, Laureth-8]",13.1
3,Laureth-9 [P9641],13.3
4,Sodium deoxycholate [reference compound],24
